Assay results as given in paper PMC10360169 (Frontiers in Immunology, 2023).
Where two headings read alike, the source gives them in different places.

Tested on: Acar3
Format: binding, great reed warbler Acrocephalus arundinaceus
[1] = Table S5, half-life estimated from dissociation in scintillation proximity assay, Acar3
[2] = Table S1, top 94 PSCPL-scoring peptides, SPA, 10µM peptide, 125I β2m, folding over night at 18°C, dissociation measured up to 24 hours at 37°C

Sequence | Stability T½ (h), peptide - Acar3 [1] [h] | Stability T½ of Acar3 in complex with the peptide [2] [min] | Stability T½ (h), peptide - Acar3 [h] | Stability T½ of Acar3 in complex with the peptide [min]
AANMYIYPL [9-mer peptide] | 0.1 | – | – | –
AEMRETHWL [9-mer peptide] | 5.0 | 300 | – | –
AKIEAPLLL [9-mer peptide] | 2.5 | 150 | – | –
AMAAGLSSL [9-mer peptide] | 0.3 | 18 | – | –
AMMWRIAQL [9-mer peptide] | 0.3 | 18 | – | –
AMPKTIYEL [9-mer peptide] | 3.8 | 228 | – | –
AVMFFPFWF [9-mer peptide] | 0.6 | 36 | – | –
ETMKPAAMV [9-mer peptide] | 2.7 | 162 | – | –
FHMSKPSDL [9-mer peptide] | 0.8 | 48 | – | –
FLDKGTYTL [9-mer peptide] | 0.3 | 18 | – | –
FLLENAAYL [9-mer peptide] | 1.2 | 72 | – | –
FLQGAKWYL [9-mer peptide] | 0.1 | – | – | –
FMFDYIPPV [9-mer peptide] | 0.2 | – | – | –
FMIVNNFPV [9-mer peptide] | 0.3 | 18 | – | –
FQANMFLTL [9-mer peptide] | 1.2 | 72 | – | –
FQMGGIGPM [9-mer peptide] | 0.7 | 42 | – | –
FRMLAWHVL [9-mer peptide] | 0.3 | 18 | – | –
GAMYALANF [9-mer peptide] | 0.6 | 36 | – | –
GLAATSFPL [9-mer peptide] | 1.5 | 90 | – | –
GMNVTAPAL [9-mer peptide] | 0.3 | 18 | – | –
GMVGAEFSL [9-mer peptide] | 7.6 | 456 | – | –
GRLVTVNPF [9-mer peptide] | 0.5 | 30 | – | –

Sequence | Stability T½ (h), peptide - Acar3 [1] [h] | Stability T½ of Acar3 in complex with the peptide [2] [min] | Stability T½ (h), peptide - Acar3 [h] | Stability T½ of Acar3 in complex with the peptide [min]
HELSLFWPL [9-mer peptide] | 1.1 | 66 | – | –
ILMEHIHKL [9-mer peptide] | 0.2 | 12 | – | –
IMDASSFTL [9-mer peptide] | 1.4 | 84 | – | –
KAMRPWQSF [9-mer peptide] | 0.4 | 24 | – | –
KAMSTPFSL [9-mer peptide] | 5.3 | 318 | – | –
KIMQVDRPM [9-mer peptide] | 2.6 | 156 | – | –
KLMDVVYSI [9-mer peptide] | 0.4 | 24 | – | –
KMAAFPETL [9-mer peptide] | 0.4 | 24 | – | –
KMNAKAATL [9-mer peptide] | 2.1 | 126 | – | –
KQLELFWVI [9-mer peptide] | 0.2 | – | – | –
KQLESVMYL [9-mer peptide] | 1.3 | 78 | – | –
KQLEYSWVL [9-mer peptide] | 0.1 | – | – | –
KQMSQPYAV [9-mer peptide] | 4.0 | 240 | – | –
KTAAAAAAF [9-mer peptide] | 0.4 | 24 | – | –
KTMMQAHDL [9-mer peptide] | 9.9 | 594 | – | –
LDMNVVKEL [9-mer peptide] | 0.6 | 36 | – | –
LMDENTYAM [9-mer peptide] | 0.4 | 24 | – | –
LMMNGTSAM [9-mer peptide] | 0.8 | 48 | – | –
LPLPAQQPF [9-mer peptide] | 0.3 | 18 | – | –
LPRWPPPQL [9-mer peptide] | 0.3 | 18 | – | –
LQMLGENVL [9-mer peptide] | 2.6 | 156 | – | –
LRWLAKSFF [9-mer peptide] | 0.5 | 30 | – | –

Sequence | Stability T½ (h), peptide - Acar3 [1] [h] | Stability T½ of Acar3 in complex with the peptide [2] [min] | Stability T½ (h), peptide - Acar3 [h] | Stability T½ of Acar3 in complex with the peptide [min]
LTMNLVSDI [9-mer peptide] | 4.5 | 270 | – | –
MMMPMFNAF [9-mer peptide] | 7.2 | 432 | – | –
MMMSTAVAF [9-mer peptide] | 7.3 | 438 | – | –
MMWATAQAL [9-mer peptide] | 0.8 | 48 | – | –
MPMSMPIPM [9-mer peptide] | 3.2 | 192 | – | –
MTYKAAFDL [9-mer peptide] | 1.8 | 108 | – | –
QAYAAPQLF [9-mer peptide] | 1.5 | 90 | – | –
QMSWLPLCV [9-mer peptide] | 0.6 | 36 | – | –
QQMFPGAPF [9-mer peptide] | 0.4 | 24 | – | –
QWALLPYLF [9-mer peptide] | 9.9 | 594 | – | –
RATQPAAEF [9-mer peptide] | 1.6 | 96 | – | –
REMINHYQV [9-mer peptide] | 0.7 | 42 | – | –
REWSGLNYL [9-mer peptide] | 1.9 | 114 | – | –
RMAMIPRTL [9-mer peptide] | 0.5 | 30 | – | –
RMMATKDSF [9-mer peptide] | 0.4 | 24 | – | –
RMMGKTNPL [9-mer peptide] | 0.2 | – | – | –
RQIRMTSTI [9-mer peptide] | 0.1 | – | – | –
SLAIDAYPL [9-mer peptide] | – | – | 2.1 | 126
SMFERDFHF [9-mer peptide] | 0.2 | – | – | –
SMHFYGWSL [9-mer peptide] | 0.2 | – | – | –
SMMPEAMTI [9-mer peptide] | 0.9 | 54 | – | –
SQMGLSCAL [9-mer peptide] | 0.3 | 18 | – | –

Sequence | Stability T½ (h), peptide - Acar3 [1] [h] | Stability T½ of Acar3 in complex with the peptide [2] [min] | Stability T½ (h), peptide - Acar3 [h] | Stability T½ of Acar3 in complex with the peptide [min]
STEFIPNLF [9-mer peptide] | 0.3 | 18 | – | –
SVYFAAFAF [9-mer peptide] | 1.6 | 96 | – | –
SYPPPPASF [9-mer peptide] | 0.2 | 12 | – | –
VIMWYNYLF [9-mer peptide] | 0.3 | 18 | – | –
VMMAKRPLI [9-mer peptide] | 0.5 | 30 | – | –
VMPLLVWLF [9-mer peptide] | 1.9 | 114 | – | –
VPMEKLKAL [9-mer peptide] | 1.4 | 84 | – | –
VQTAAAVVF [9-mer peptide] | 0.2 | – | – | –
VVKQLPASF [9-mer peptide] | 0.1 | – | – | –
WLAKSFFEL [9-mer peptide] | 0.2 | – | – | –
WMACNSAAF [9-mer peptide] | 0.9 | 54 | – | –
WMMAMRYPI [9-mer peptide] | 3.1 | 186 | – | –
WQLTSIWPI [9-mer peptide] | 0.7 | 42 | – | –
YLLEMLWRL [9-mer peptide] | 0.4 | 24 | – | –
YLMPYSVYI [9-mer peptide] | 0.1 | – | – | –
YLQQNTHTL [9-mer peptide] | 0.5 | 30 | – | –
YLYLRPYAL [9-mer peptide] | 2.4 | 144 | – | –
YMHGSIHEV [9-mer peptide] | 0.9 | 54 | – | –
YMKKRYEEF [9-mer peptide] | 0.2 | – | – | –
YMWECPDFF [9-mer peptide] | 2.6 | 156 | – | –
